A word on the IC50: it is the concentration needed to halve the response being measured. The CC50 is the concentration that lowers cell viability or growth by half. By EC50 is commonly meant the concentration at which the effect is half-maximal.

Our source for the IC50, CC50 and EC50 values is patent US20220204476A1, “RNA VIRUS INHIBITOR COMPOUNDS AND USES THEREOF” (The Governors of the University of Alberta, priority 2020, published 2022).

In one data set the target is SARS-CoV-2 3CLP (Severe acute respiratory syndrome coronavirus 2, UniProt P0DTD1). As to the kind of experiment: SARS-CoV-2 3CLP inhibition, FRET-based cleavage assay. Type of data set: biochemical. The settings on record: 80 nM SARS-CoV-2 3CLP, 100 μM substrate, 37° C., 10 min incubation, pH 7.8; read-out: 3CL Protease IC50.
Data set [1] is described as follows: Cytotoxicity, CellTiter-Glo luminescent cell viability assay. To be noted: human (A549) and green monkey (Vero E6). (In general: In ATP-based viability assays light output follows the ATP content of the culture.)
The test system of a further data set is SARS-CoV-2. The data set is described as follows: SARS-CoV-2 in vitro plaque reduction assay in Vero E6 cells. The format is cell-based. To be noted: Severe acute respiratory syndrome coronavirus 2, Vero C1008, MOI 0.0001 pfu/cell, plaques counted after 48 h, >5 μM = did not reduce plaque numbers by half at 10 μM, read-out: SARS-CoV-2 Antiviral EC50.

Take `COc1cccc2[nH]c(C(=O)N[C@@H](CC(C)C)C(=O)N[C@@H](C[C@@H]3CCCNC3=O)C(=O)COC(=O)c3c(Cl)cccc3Cl)cc12` [Compound 5, (3S)-3-{[N-(4-methoxy-1H-indole-2-carbonyl)-L-leucyl]amino}-2-oxo-4-[(3S)-2-oxopiperidin-3-yl]butyl 2,6-dichlorobenzoate]: the 50% inhibitory concentration (IC50) on SARS-CoV-2 3CLP was 6.4 nM. In data set [1], the CC50 at 24 h was > 200000 nM.

Regarding `COc1cccc2[nH]c(C(=O)N[C@@H](CC(C)C)C(=O)N[C@@H](C[C@@H]3CCCNC3=O)C(=O)COC(=O)c3c(C(F)(F)F)cccc3C(F)(F)F)cc12` [Compound 6, (3S)-3-{[N-(4-methoxy-1H-indole-2-carbonyl)-L-leucyl]amino}-2-oxo-4-[(3S)-2-oxopiperidin-3-yl]butyl 2,6-bis(trifluoromethyl)benzoate], in the data set on SARS-CoV-2, the EC50 was 210 nM. Besides, the IC50 at SARS-CoV-2 3CLP was 1 nM. For the same compound, in data set [1], the half-maximal cytotoxic concentration (CC50) at 24 h was > 200000 nM.

For `COc1cccc2[nH]c(C(=O)N[C@@H](CC(C)C)C(=O)N[C@@H](C[C@@H]3CCCNC3=O)C(=O)COC(=O)C(C)(C)C(F)(F)F)cc12` [Compound 13, (3S)-3-{[N-(4-methoxy-1H-indole-2-carbonyl)-L-leucyl]amino}-2-oxo-4-[(3S)-2-oxopiperidin-3-yl]butyl 3,3,3-trifluoro-2,2-dimethylpropanoate], the half-maximal effective concentration (EC50) with SARS-CoV-2 is > 5000 nM. Moreover, on SARS-CoV-2 3CLP, the half-maximal inhibitory concentration (IC50) was 20 nM. For the same compound, the cytotoxic concentration (CC50) at 24 h in data set [1] was > 200000 nM.

With `COc1cccc2[nH]c(C(=O)N[C@@H](CC(C)C)C(=O)N[C@@H](C[C@@H]3CCCNC3=O)C(=O)COC(=O)c3c(C(F)(F)F)cc(C)nc3C)cc12` [Compound 18, (3S)-3-{[N-(4-methoxy-1H-indole-2-carbonyl)-L-leucyl]amino}-2-oxo-4-[(3S)-2-oxopiperidin-3-yl]butyl 2,6-dimethyl-4-(trifluoromethyl)pyridine-3-carboxylate], the EC50 in the data set on SARS-CoV-2 amounted to 460 nM. Further, the IC50 on SARS-CoV-2 3CLP is 14 nM. For the same compound, the CC50 at 24 h in data set [1] was > 200000 nM.

Regarding `COc1cccc2[nH]c(C(=O)N[C@@H](CC(C)C)C(=O)N[C@H](C#N)C[C@@H]3CCCNC3=O)cc12` [Compound 34, N-[(2S)-1-({(1S)-1-cyano-2-[(3S)-2-oxopiperidin-3-yl]ethyl}amino)-4-methyl-1-oxopentan-2-yl]-4-methoxy-1H-indole-2-carboxamide], the half-maximal effective concentration (EC50) in the data set on SARS-CoV-2 came to 2700 nM. In addition, at SARS-CoV-2 3CLP, the IC50 was determined as 13 nM. In addition, the CC50 at 24 h in data set [1] is > 200000 nM.

With `COc1cc(Cl)cc2[nH]c(C(=O)N[C@@H](CC(C)(C)C)C(=O)N[C@H](C#N)C[C@@H]3CCCNC3=O)cc12` [Compound 35, 6-chloro-N-[(2S)-1-({(1S)-1-cyano-2-[(3S)-2-oxopiperidin-3-yl]ethyl}amino)-4,4-dimethyl-1-oxopentan-2-yl]-4-methoxy-1H-indole-2-carboxamide], in the data set on SARS-CoV-2, the EC50 came to 1500 nM. Further, the CC50 at 24 h in data set [1] is > 200000 nM.

Consider `CC(C)C[C@H](NC(=O)c1cc2c(OC(F)(F)F)cccc2[nH]1)C(=O)N[C@H](C#N)C[C@@H]1CCCNC1=O` [Compound 40, N-[(2S)-1-({(1S)-1-cyano-2-[(3S)-2-oxopiperidin-3-yl]ethyl}amino)-4-methyl-1-oxopentan-2-yl]-4-(trifluoromethoxy)-1H-indole-2-carboxamide], for which the EC50 in the data set on SARS-CoV-2 was 2600 nM. The half-inhibitory concentration (IC50) on SARS-CoV-2 3CLP stood at 14 nM. Further, the cytotoxic concentration (CC50) at 24 h in data set [1] is > 50000 nM.

`CCOc1cccc2[nH]c(C(=O)N[C@@H](CC(C)C)C(=O)N[C@H](C#N)C[C@@H]3CCCNC3=O)cc12` [Compound 69, N-[(2S)-1-({(1S)-1-cyano-2-[(3S)-2-oxopiperidin-3-yl]ethyl}amino)-4-methyl-1-oxopentan-2-yl]-4-ethoxy-1H-indole-2-carboxamide]: in the data set on SARS-CoV-2, the EC50 is 4800 nM. Also, the IC50 at SARS-CoV-2 3CLP came to 24 nM. Moreover, the CC50 at 24 h in data set [1] is > 200000 nM.

`COc1cccc2[nH]c(C(=O)N[C@@H](CC(C)(C)C)C(=O)N[C@H](C#N)C[C@@H]3CCCNC3=O)cc12` [Compound 70, N-[(2S)-1-({(1S)-1-cyano-2-[(3S)-2-oxopiperidin-3-yl]ethyl}amino)-4,4-dimethyl-1-oxopentan-2-yl]-4-methoxy-1H-indole-2-carboxamide]: the EC50 with SARS-CoV-2 was > 5000 nM. In addition, in data set [1], the 50% cytotoxic concentration (CC50) at 24 h is > 200000 nM.

Turning to `CC(C)C[C@H](NC(=O)c1cc2c3c(ccc2[nH]1)CCO3)C(=O)N[C@H](C#N)C[C@@H]1CCCNC1=O` [Compound 71, N-[(2S)-1-({(1S)-1-cyano-2-[(3S)-2-oxopiperidin-3-yl]ethyl}amino)-4-methyl-1-oxopentan-2-yl]-3,6-dihydro-2H-furo[2,3-e]indole-7-carboxamide], the concentration for a half-maximal effect (EC50) with SARS-CoV-2 is > 5000 nM. Further, the half-inhibitory concentration (IC50) on SARS-CoV-2 3CLP amounted to 49 nM. Besides, the CC50 at 24 h in data set [1] was > 200000 nM.

With `Cc1cc(C)c(C(=O)OCC(=O)[C@H](C[C@@H]2CCCNC2=O)NC(=O)[C@H](CC(C)C)NC(=O)[C@H]2CCCO2)c(C)n1` [Compound 73, (3S)-2-oxo-3-({N-[(2R)-oxolane-2-carbonyl]-L-leucyl}amino)-4-[(3S)-2-oxopiperidin-3-yl]butyl 2,4,6-trimethylpyridine-3-carboxylate], in the data set on SARS-CoV-2, the 50% effective concentration (EC50) is < 1000 nM. Besides, the IC50 on SARS-CoV-2 3CLP was 190 nM. Further, the CC50 at 24 h in data set [1] was > 200000 nM.

For the compound `CC(C)C[C@H](NC(=O)[C@H]1CCCO1)C(=O)N[C@@H](C[C@@H]1CCNC1=O)C(=O)COC(=O)c1c(C(F)(F)F)cccc1C(F)(F)F` [Compound 74, (3S)-2-oxo-3-({N-[(2R)-oxolane-2-carbonyl]-L-leucyl}amino)-4-[(3S)-2-oxopyrrolidin-3-yl]butyl 2,6-bis(trifluoromethyl)benzoate], the EC50 in the data set with SARS-CoV-2 was < 1000 nM. On SARS-CoV-2 3CLP, the concentration for half-maximal inhibition (IC50) stood at 110 nM. The half-maximal cytotoxic concentration (CC50) at 24 h in data set [1] was > 200000 nM.

`COc1cccc2oc(C(=O)N[C@@H](CC(C)(C)C)C(=O)N[C@H](C#N)C[C@@H]3CCCNC3=O)cc12` [Compound 93, N-[(2S)-1-({(1S)-1-cyano-2-[(3S)-2-oxopiperidin-3-yl]ethyl}amino)-4,4-dimethyl-1-oxopentan-2-yl]-4-methoxy-1-benzofuran-2-carboxamide]: the 50% effective concentration (EC50) in the data set with SARS-CoV-2 is > 5000 nM. Further, on SARS-CoV-2 3CLP, the half-maximal inhibitory concentration (IC50) stood at 240 nM.

For `N#C[C@H](C[C@@H]1CCNC1=O)NC(=O)[C@H](CC1CCCCC1)NC(=O)OCc1cccc(Cl)c1` [Compound 94, (3-chlorophenyl)methyl [(2S)-1-({(1S)-1-cyano-2-[(3S)-2-oxopyrrolidin-3-yl]ethyl}amino)-3-cyclohexyl-1-oxopropan-2-yl]carbamate], the EC50 in the data set on SARS-CoV-2 is > 5000 nM. Also, at SARS-CoV-2 3CLP, the IC50 was 160 nM.

Turning to `CC(C)C[C@H](NCC1CCCCC1)C(=O)N[C@H](C#N)C[C@@H]1CCCNC1=O` [Compound 95, N-{(1S)-1-cyano-2-[(3S)-2-oxopiperidin-3-yl]ethyl}-N^2-(cyclohexylmethyl)-L-leucinamide], the EC50 in the data set on SARS-CoV-2 was > 5000 nM. Besides, at SARS-CoV-2 3CLP, the half-inhibitory concentration (IC50) was determined as 97000 nM.

Regarding `COc1nccc2[nH]c(C(=O)N[C@@H](CC(C)(C)C)C(=O)N[C@H](C#N)C[C@@H]3CCCNC3=O)cc12` [Compound 99, N-[(2S)-1-({(1S)-1-cyano-2-[(3S)-2-oxopiperidin-3-yl]ethyl}amino)-4,4-dimethyl-1-oxopentan-2-yl]-4-methoxy-1H-pyrrolo[3,2-c]pyridine-2-carboxamide], the EC50 with SARS-CoV-2 is > 5000 nM. Besides, the IC50 on SARS-CoV-2 3CLP is 22 nM.

Turning to `COc1nccc2c1cc(C(=O)N[C@@H](CC(C)(C)C)C(=O)N[C@H](C#N)C[C@@H]1CCCNC1=O)n2C` [Compound 100, N-[(2S)-1-({(1S)-1-cyano-2-[(3S)-2-oxopiperidin-3-yl]ethyl}amino)-4,4-dimethyl-1-oxopentan-2-yl]-4-methoxy-1-methyl-1H-pyrrolo[3,2-c]pyridine-2-carboxamide], the half-maximal effective concentration (EC50) in the data set with SARS-CoV-2 is > 5000 nM. Besides, at SARS-CoV-2 3CLP, the 50% inhibitory concentration (IC50) is 220 nM.

For `CC(C)(C)C[C@H](NC(=O)[C@H]1Cc2ccccc2N1C(=O)OCc1ccccc1)C(=O)N[C@H](C#N)C[C@@H]1CCCNC1=O` [Compound 101, benzyl (2R)-2-{[(2S)-1-({(1S)-1-cyano-2-[(3S)-2-oxopiperidin-3-yl]ethyl}amino)-4,4-dimethyl-1-oxopentan-2-yl]carbamoyl}-2,3-dihydro-1H-indole-1-carboxylate], the EC50 in the data set on SARS-CoV-2 was > 5000 nM. Besides, at SARS-CoV-2 3CLP, the IC50 came to 180 nM.

For `CC(C)(C)C[C@H](NC(=O)[C@H]1Cc2ccccc2N1)C(=O)N[C@H](C#N)C[C@@H]1CCCNC1=O` [Compound 102, (2R)—N-[(2S)-1-({(1S)-1-cyano-2-[(3S)-2-oxopiperidin-3-yl]ethyl}amino)-4,4-dimethyl-1-oxopentan-2-yl]-2,3-dihydro-1H-indole-2-carboxamide], in the data set with SARS-CoV-2, the concentration giving a half-maximal response (EC50) is > 5000 nM. Besides, the IC50 on SARS-CoV-2 3CLP turned out to be 140 nM.

Take `CC(C)C[C@H](NC(=O)[C@@H]1C[C@H]1c1ccccc1)C(=O)N[C@H](C#N)C[C@@H]1CCCNC1=O` [Compound 106, N-{(1S)-1-cyano-2-[(3S)-2-oxopiperidin-3-yl]ethyl}-N^2-[(1R,2R)-2-phenylcyclopropane-1-carbonyl]-L-leucinamide]: in the data set with SARS-CoV-2, the concentration giving a half-maximal response (EC50) was > 5000 nM. The 50% inhibitory concentration (IC50) at SARS-CoV-2 3CLP is 69 nM.
